50 compounds from US9901097B2, “Agricultural and horticultural fungicidal composition” (Nippon Soda Co., Ltd., priority 2011, dated 2018) can be followed below.

One assay has as its system Botrytis cinerea. Put plainly: Sterilization test (growth inhibition of Botrytis cinerea in potato dextrose medium, 96-well microplate, turbidity 405 nm). Format: cell-based. As to conditions: for inhibition at 2 ppm / inhibition at 10 ppm / inhibition at 0.4 ppm / inhibition at 0.08 ppm / inhibition at 0.02 ppm: Botrytis cinerea, read-out: Growth inhibition rate; for inhibition at 0.4 ppm: drug II alone 0.4 ppm; for inhibition at 0.02 ppm: drug II alone 0.02 ppm. As for the experimental part: The solutions thus obtained were mixed to prepare fungicidal compositions.
Conidia of Botrytis cinerea were added to and dispersed in a potato dextrose culture medium. A fungicidal composition was added thereto and mixed. This was dispensed in a 96-well microplate and cultured at 20° C. for 3 days in a dark setting. Then, the turbidity was measured at a wavelength of 405 nm in a microplate reader. From comparison with the measured value of turbidity in the case of non-treatment (without the addition of the fungicidal composition), the growth inhibition rate of Botrytis cinerea (%) was calculated. The test was carried out in duplicate. Further, the expected value of the growth inhibition was calculated based on Colby's equation.
In addition, the Colby's equation is E=M+N−MN/100. Here, E is the expected value of a growth inhibition rate (%), M is the growth inhibition rate (%) calculated from the measurement with the use of the drug I alone, and N is the growth inhibition rate (%) calculated from the measurement with the use of the drug II alone. Additionally, in Tables, the expected values with the use of the drug alone were not shown, because they were the same as the values calculated from the measurement.
At the concentrations shown in Tables 6 to 8, the drug I and the drug II were dissolved separately in dimethyl sulfoxide. The obtained solution was mixed to prepare a fungicidal composition.
Using the same methods as in Example 1 and Comparative Example 1, the sterilization test was carried out. Additionally, in Tables, the expected values with the use of the drug alone were not shown, because they were the same as the values calculated from the measurement.

Assay [1] deals with cucumber gray mold disease pathogens (Botrytis cinerea). Briefly: Control test for cucumber gray mold disease (sprayed cucumber seedlings). Format: in vivo. To be noted: Botrytis cinerea. As for the experimental part:
The drug I and the drug II were dissolved in an organic solvent and a surfactant, and the prepared mixed emulsifiable concentrate was diluted with water to a predetermined concentration, and sprayed to cucumber seedlings that had been cultivated in unglazed pots (cultivar “Sagamihanjiro” cotyledon stage). Additionally, in Tables, the symbol A indicating the drug I represents a nitrogen-containing heterocyclic compound represented by the formula (A), the symbol B indicating the drug I represents a nitrogen-containing heterocyclic compound represented by the formula (B), and the symbol C indicating the drug I represents a nitrogen-containing heterocyclic compound represented by the formula (C). Further, the number indicating the drug II represents each of the compounds described in the numbers described above. Additionally, “-” in Tables represents that the drug was not used.
After air-drying at room temperature, a suspension of the conidia of cucumber gray mold disease pathogens (Botrytis cinerea) was inoculated by dropwise addition and held in a dark room at 20° C. with a high humidity for 3, 4, or 5 days. By investigation on the state of lesion appearance in leaves with comparison with a non-treatment case, the controlling effect was determined. The test was carried out in duplicate. In addition, the expected value of the controlling effect was calculated based on Colby's equation.
At the same time, in Comparative Example, in the case of using the drug I only and the case of using the drug II only, the test was carried out by the same method.
Additionally, the Colby's equation is E=M+N−MN/100. Here, E is the expected value of the controlling effect (%), M is the controlling effect (%) calculated from the measurement with the use of the drug I alone, and N is the controlling effect (%) calculated from the measurement with the use of the drug II alone. Additionally, in Tables, the expected values with the use of the drug alone were the same as the values calculated from the measurement, and were thus not shown.

[2] abbreviates: Example 1 (Tables 1-5), drug II alone 2 ppm.
[3] abbreviates: Example 1 (Tables 1-5), drug II alone 10 ppm.
Where [4] appears, read: Example 1 (Tables 1-5), drug II alone 0.08 ppm.
Where [5] appears, read: Example 2 (Tables 6-8), drug II alone 10 ppm.

Where two headings read alike, the source gives them in different places.

For `C[C@@]1(c2ccc(Oc3ccccc3)cc2)OC(=O)N(Nc2ccccc2)C1=O` (racemic) [Drug 9, Famoxadone], the inhibition at 2 ppm in the assay with Botrytis cinerea (setting [2]) amounted to 0%.

In the case of `O=C(Cc1ccccc1)N/C(=N\OCC1CC1)c1c(C(F)(F)F)ccc(F)c1F` [Drug 1, Cyflufenamid], the pest or weed control at 25 ppm in assay [1] (120 h, Table 10, 5 days after inoculation, drug II alone 25 ppm, read-out: Control effect) came out at 0%. Further, the inhibition at 10 ppm in the assay with Botrytis cinerea (setting [3]) stood at 9%.

Consider `COCC(=O)N(c1c(C)cccc1C)C(C)C(=O)OC` (centres unmarked) [Drug 6, Metalaxyl], for which, in the assay on Botrytis cinerea (setting [3]), the inhibition at 10 ppm turned out to be 0%.

Take `CCNC(=O)NC(=O)/C(C#N)=N/OC` [Drug 7, Cymoxanil]: the inhibition at 2 ppm with Botrytis cinerea (setting [2]) stood at 0%.

Regarding `CC(C)OC(=O)N[C@H](C(=O)N[C@H](C)c1nc2ccc(F)cc2s1)C(C)C` [Drug 8, Benthiavalicarb-isopropyl], in the assay on Botrytis cinerea (setting [3]), the inhibition at 10 ppm turned out to be 0%.

As to `CCCCCCCCc1c(CC)nc2ncnn2c1N` [Drug 10, Ametoctradin], in the assay on Botrytis cinerea (setting [3]), the Growth inhibition rate is 0%.

As to `O=C(NCc1ncc(C(F)(F)F)cc1Cl)c1c(Cl)cccc1Cl` [Drug 11, Fluopicolide], the Growth inhibition rate with Botrytis cinerea (setting [3]) came to 6%.

Take `CCC(C)(NC(=O)c1cc(Cl)c(C)c(Cl)c1)C(=O)CCl` (centres unmarked) [Drug 12, Zoxamide]: the inhibition at 0.4 ppm with Botrytis cinerea (Example 1 (Tables 1-5)) was 3%.

As for `CCO[PH](=O)O` [Drug 13, Fosetyl], in the assay on Botrytis cinerea (setting [4]), the inhibition at 0.08 ppm stood at 2%.

Consider `Cc1ccc(-c2c(Cl)nc(C#N)n2S(=O)(=O)N(C)C)cc1` [Drug 14, Cyazofamid], for which, in the assay on Botrytis cinerea (setting [3]), the inhibition at 10 ppm stood at 0%.

As for `CCCOc1nc2ccc(I)cc2c(=O)n1CCC` [Drug 15, Proquinazid], in the assay with Botrytis cinerea (setting [3]), the Growth inhibition rate came out at 0%.

Turning to `COc1cc(C)c(C(=O)c2c(OC)ccc(Br)c2C)c(OC)c1OC` [Drug 16, Metrafenone], in the assay on Botrytis cinerea (setting [3]), the inhibition at 10 ppm worked out at 0%.

With `Fc1ccc(Oc2ccnc3cc(Cl)cc(Cl)c23)cc1` [Drug 17, Quinoxifen], in the assay with Botrytis cinerea (setting [2]), the Growth inhibition rate is listed as 0%.

As for `CC(C)Oc1cccc(NC(=O)c2ccccc2C(F)(F)F)c1` [Drug 18, Flutolanil], in the assay on Botrytis cinerea (setting [3]), the inhibition at 10 ppm amounted to 0%.

In the assay on Botrytis cinerea (setting [3]), `Cc1c(Cl)cc(-c2ccc(=O)[nH]n2)cc1Cl` [Drug 19, Diclomezin] came in with a Growth inhibition rate of 0%.

For `N#Cc1c[nH]cc1-c1cccc2c1OC(F)(F)O2` [Drug 20, Fludioxonil], the inhibition at 0.02 ppm in the assay on Botrytis cinerea (Example 1 (Tables 1-5)) was determined as 39%.

With `CC1COC(Cn2cncn2)(c2ccc(Oc3ccc(Cl)cc3)cc2Cl)O1` (centres unmarked) [Drug 21, Difenoconazole], the inhibition at 0.4 ppm with Botrytis cinerea (Example 1 (Tables 1-5)) is 36%.

As for `CC(C)(C)C(O)(CCc1ccc(Cl)cc1)Cn1cncn1` (centres unmarked) [Drug 22, Tebuconazole], the inhibition at 0.08 ppm in the assay with Botrytis cinerea (setting [4]) is 34%.

With `CC1=C(C(=O)Nc2ccccc2)SCCO1` [Drug 23, Carboxin], the inhibition at 0.4 ppm in the assay with Botrytis cinerea (Example 1 (Tables 1-5)) was 0%.

In the case of `CN(C)C(=S)SSC(=S)N(C)C` [Drug 24, Thiram], in the assay with Botrytis cinerea (setting [4]), the inhibition at 0.08 ppm amounted to 30%.

Regarding `N#Cc1c(Cl)c(Cl)c(Cl)c(C#N)c1Cl` [Drug 25, Chlorothalonil], the inhibition at 0.08 ppm with Botrytis cinerea (setting [4]) stood at 4%.

Consider `CON=C(C(=O)OC)c1ccccc1CON=C(C)c1cccc(C(F)(F)F)c1` [Drug 26, Trifloxystrobin], for which the inhibition at 0.08 ppm with Botrytis cinerea (setting [4]) amounted to 32%.

On to `CO/C=C(/C(=O)OC)c1ccccc1Oc1cc(Oc2ccccc2C#N)ncn1` [Drug 27, Azoxystrobin], for which, in the assay on Botrytis cinerea (setting [4]), the Growth inhibition rate was 30%.

As for `CO/N=C(/C(=O)OC)c1ccccc1COc1ccccc1C` [Drug 28, Kresoxim-methyl], in the assay with Botrytis cinerea (setting [4]), the inhibition at 0.08 ppm is 20%.

Turning to `O=C(NCCc1ncc(C(F)(F)F)cc1Cl)c1ccccc1C(F)(F)F` [Drug 30, Fluopyram], the inhibition at 0.08 ppm in the assay with Botrytis cinerea (setting [4]) was determined as 16%.

`O=[N+]([O-])c1cc(C(F)(F)F)c(Cl)c([N+](=O)[O-])c1Nc1ncc(C(F)(F)F)cc1Cl` [Drug 31, Fluazinam]: the inhibition at 0.02 ppm with Botrytis cinerea (Example 1 (Tables 1-5)) came to 20%.

For `O=C1C2CC=CCC2C(=O)N1SC(Cl)(Cl)Cl` (centres unmarked) [Drug 33, Captan], in the assay with Botrytis cinerea (Example 1 (Tables 1-5)), the inhibition at 0.02 ppm is 28%.

For `Cc1cc(C2CC2)nc(Nc2ccccc2)n1` [Drug 34, Cyprodinil], the inhibition at 0.02 ppm in the assay on Botrytis cinerea (Example 1 (Tables 1-5)) is 0%.

With `COP(=S)(OC)Oc1c(Cl)cc(C)cc1Cl` [Drug 35, Tolclofos-methyl], the inhibition at 10 ppm with Botrytis cinerea (setting [3]) is 35%.

As to `CC(C)NC(=O)N1CC(=O)N(c2cc(Cl)cc(Cl)c2)C1=O` [Drug 36, Iprodione], the inhibition at 0.4 ppm in the assay on Botrytis cinerea (Example 1 (Tables 1-5)) was determined as 39%.

`O=C1c2ccccc2C(=O)N1SC(Cl)(Cl)Cl` [Drug 37, Folpet]: in the assay with Botrytis cinerea (Example 1 (Tables 1-5)), the inhibition at 0.02 ppm turned out to be 10%.

For the compound `Cc1cc(C(F)(F)F)nn1CC(=O)N1CCC(c2nc(C(=O)N(C)C3CCCc4ccccc43)cs2)CC1` (centres unmarked) [Drug 39], the inhibition at 10 ppm in the assay on Botrytis cinerea (setting [3]) was 13%.

Consider `CNC(=O)/C(=N/OC)c1ccccc1CO/N=C(C)/C(=N/OC)C(/C)=N/OC` [Drug 40, Orysastrobin], for which the Growth inhibition rate in the assay with Botrytis cinerea (setting [5]) is 58%.

`CC(C)OC(=O)C(C(=O)OC(C)C)=C1SCCS1` [Drug 41, Isoprothiolane]: in the assay on Botrytis cinerea (setting [5]), the inhibition at 10 ppm was 10%.

`O=[N+]([O-])NC1=NCCN1Cc1ccc(Cl)nc1` [Drug 45, Imidacloprid]: the inhibition at 10 ppm with Botrytis cinerea (setting [5]) was found to be 0%.

Consider `CN1COCN(Cc2cnc(Cl)s2)/C1=N\[N+](=O)[O-]` [Drug 46, Thiamethoxam], for which the inhibition at 10 ppm in the assay with Botrytis cinerea (setting [5]) is 0%.

As for `CN/C(=N\[N+](=O)[O-])NCc1cnc(Cl)s1` [Drug 47, Clothianidin], the inhibition at 10 ppm with Botrytis cinerea (setting [5]) was 4%.

With `CCOP(=S)(OCC)Oc1nc(Cl)c(Cl)cc1Cl` [Drug 48, Chlorpyrifos], the inhibition at 10 ppm in the assay on Botrytis cinerea (setting [5]) was determined as 0%.

Turning to `CS/C(C)=N\OC(=O)N(C)SN(C)C(=O)O/N=C(\C)SC` [Drug 49, Thiodicarb], in the assay on Botrytis cinerea (setting [5]), the inhibition at 10 ppm was found to be 0%.

For `CN/C(=N/CC1CCOC1)N[N+](=O)[O-]` (centres unmarked) [Drug 51, Dinotefuran], in the assay on Botrytis cinerea (setting [5]), the inhibition at 10 ppm is 0%.

`CCOc1ccc(C(C)(C)COCc2cccc(Oc3ccccc3)c2)cc1` [Drug 52, Etofenprox]: in the assay with Botrytis cinerea (setting [5]), the inhibition at 10 ppm amounted to 4%.

On to `N#Cc1nn(-c2c(Cl)cc(C(F)(F)F)cc2Cl)c(N)c1[S+]([O-])C(F)(F)F` (centres unmarked) [Drug 53, Fipronil], for which the inhibition at 10 ppm in the assay with Botrytis cinerea (setting [5]) amounted to 12%.

Turning to `CC[S+]([O-])c1c(C#N)nn(-c2c(Cl)cc(C(F)(F)F)cc2Cl)c1N` (centres unmarked) [Drug 54, Ethiprole], the inhibition at 10 ppm in the assay with Botrytis cinerea (setting [5]) came out at 2%.

`CC1=NNC(=O)N(/N=C/c2cccnc2)C1` [Drug 55, Pymetrozine]: the inhibition at 10 ppm with Botrytis cinerea (setting [5]) stood at 3%.

Consider `Cc1nc(C(F)(F)F)c(C(=O)Nc2c(Br)cc(OC(F)(F)F)cc2Br)s1` [Drug 56, Thifluzamide], for which, in the assay with Botrytis cinerea (setting [5]), the inhibition at 10 ppm was 28%.

Take `CC(C)N1C(=O)N(c2ccccc2)CS/C1=N\C(C)(C)C` [Drug 57, Buprofezin]: the inhibition at 10 ppm in the assay on Botrytis cinerea (setting [5]) stood at 0%.

With `O=C(Nc1ccccc1-c1ccc(Cl)cc1)c1cccnc1Cl` [Drug 58, Boscalid], the pest or weed control at 0.4 ppm in assay [1] (96 h, 4 days after inoculation, drug II alone 0.4 ppm, read-out: Control effect (%)) came out at 0%. For the same compound, the pest or weed control at 1.6 ppm in assay [1] (96 h, 4 days after inoculation, drug II alone 1.6 ppm, read-out: Control effect (%)) turned out to be 0%. Also, the pest or weed control at 6.3 ppm in assay [1] (96 h, 4 days after inoculation, drug II alone 6.3 ppm, read-out: Control effect (%)) was 39%.

`CCOCn1c(-c2ccc(Cl)cc2)c(C#N)c(Br)c1C(F)(F)F` [Drug 59, Chlorfenapyr]: the pest or weed control at 400 ppm in assay [1] (96 h, 4 days after inoculation, drug II alone 400 ppm, read-out: Control effect (%)) came to 0%.

In the assay with Botrytis cinerea (setting [2]), Manzeb [Drug 32] showed a Growth inhibition rate of 11%.

In the assay with Botrytis cinerea (setting [5]), Spinosad [Drug 50] gave a Growth inhibition rate of 0%.
